The source of these data is US4772594A, “Prodrug compounds, process for the preparation thereof and sustained release preparation comprising the same” (Fujisawa Pharmaceutical Co., Ltd., priority 1986, dated 1988).

Data set [1] in a line: Conversion Test 1: conversion half life of prodrug to parent compound in rat serum. Format: in vitro ADME. Conditions: rat serum, 37° C. Here is the method: (§1) Chloroform solution containing egg yolk lecithin (84 μmole), egg yolk sphingomyelin (36 μmole) and Mitomycin C prodrug ( 6 μmole) obtained in the below-mentioned Example 1 or 2 was poured into a round-bottom flask and evaporated to dryness.
(§2) To this were added sodium cholate (258 mg) and pH 7.4 phosphate buffered saline (hereinafter referred to as PBS) (4.8 ml) and the mixture was agitated to give a clear purple solution.
(§3) Sodium cholate was removed from the solution by the Lipoprep dialyzer (detergent removal apparatus prepared by Diachema Co., Ltd.) to give a liposome suspension containing Mitomycin C prodrug.
Chloroform solution containing egg yolk lecithin (70 μmole), egg yolk sphingomyelin (30 μmole) and FR900482 substance prodrug (Example 6)(5 μmole) was poured into a round-bottom flask and a liposome suspension containing FR900482 substance prodrug was obtained in a similar manner to that of above-mentioned method.
Above-mentioned two liposome suspensions containing Mitomycin C prodrug were each diluted with PBS at 2.5 times.
The liposome suspension containing FR900482 substance prodrug was diluted with PBS to obtain the drug concentration of 0.5 μmole/ml and was filtered through millex-GV (trademark: prepared by Millipore Co., Ltd.) filter (0.22μ).
(§4) After the liposome suspension and ethanol solution of each prodrug (0.5 ml) were added to mouse, rat or human serum (4.5 ml, 37° C.), samples were taken periodically and the concentration of each prodrug was determined by high-performance liquid chromotography.
(§5) Conversion half lives (t 1/2) of each prodrug to each parent compound in various kinds of serum were calculated by the concentration of each prodrug remaining at each time.

The nature of data set [2]: Conversion Test 1: conversion half life of prodrug to parent compound in human serum. In kind it is in vitro ADME. As to conditions: 37° C. On the procedure: as §1, §2, §3
(§6) Chloroform solution containing egg yolk lecithin (70 μmole), egg yolk sphingomyelin (30 μmole) and FR900482 substance prodrug (Example 6)(5 μmole) was poured into a round-bottom flask and a liposome suspension containing FR900482 substance prodrug was obtained in a similar manner to that of above-mentioned method. […]
as §4, §5

Data set [3] is described as follows: Conversion Test 1: conversion half life of prodrug to parent compound in mouse serum. In kind it is in vitro ADME. Conditions: 37° C. Here is the method: as §1, §2, §3, §6, §4, §5
Data set [4] concerns human lung adenocarcinoma A 549. Briefly: Anti tumor test 2: growth inhibition of A 549 under the subrenal capsule of mice. In kind it is in vivo. As to conditions: Day 14; for Inhibition: tumor growth. The text has this: The mixture of chloroform and methanol (3:1 V/V) containing egg yolk lecithin (245 μmole), egg yolk sphingomyelin (105 μmole) and Cyarabine prodrug (Example 8) (87.5 and 157.5 μmole respectively) was taken in a round-bottom flask. Liposome suspensions containing Cytarabine prodrug (Concentration: 10 and 18 μmole/ml respectively) were obtained in a similar manner to that of the above-mentioned method.
A fragment of human lung adenocarcinoma A 549 was implanted under the subrenal capsule of BDF female mouse (8 weeks). Cytarabine aqueous solution (dose: 1000 μmole/kg) and above-mentioned liposome suspension containing Cytarabine prodrug (dose: 100 and 180 μmole/kg respectively)were administered intravenously to the mice at a volume of 0.2 ml per mouse body weight 20 g at Day 1, 5 and 9 after implantation. The tumor volume at Day 14 after implantation was measured and the growth inhibition percent was calculated. (In this test, to clarify the anti tumor effect of each preparation, 17-allyl-1,14-dihydroxy-12-[2-(4-hydroxy-3- methoxycyclohexyl)-1-methylvinyl]-23,25-dimethoxy-13,19,21,27-tetramethyl- 11,28-dioxa-4-azatricyclo[22.3.1.0^4,9 ]octacos-18-ene-2,3,10,16-tetraone as immunosuppressive substance(dose: 32 mg/kg) was administered subcutaneously at Day 1, 2, 5, 7, 9 and 12 after implanation.)

Data set [5] relates to Mouse leukemia cell L 1210. Briefly: Anti tumor test 1: survival of mice implanted with L 1210 leukemia. In kind it is in vivo. Conditions: i.v. aqueous solution, 100 μmole/kg.
In data set [6] the test system is Mouse leukemia cell L 1210. Described as above. Format: in vivo. Conditions: for T/C: mean survival time vs control. The source says:
The mixture of chloroform and methanol (8:2 V/V) containing egg yolk lecithin (245 μmole), egg yolk sphingomyelin (105 μmole) and Cytarabine prodrug (Example 8) (87.5 and 262.5 μmole respectively) was taken in a roundbottom flask. Liposome suspensions containing Cytarabine prodrug (Concentration: 10 and 20 μmole/ml respectively) were obtained in a similar manner to that of the above-mentioned method. Mouse leukemia cell L 1210 (10^5 cells) were implanted intraperitoneally into BDF female mice (7 weeks).
After 24 hours after inoculation, Cytarabine aqueous solution (dose: 1000 and 3000 μmole/kg respectively), above-mentioned liposome suspension containing Cytarabine prodrug (dose: 100 and 300 μmole/kg respectively)and aqueous solution of N^4 -behenoyl-1-β-arabinofuranosylcytosine (hereinafter referred to as BHAC) which is a known compound as Cytarabine prodrug and is shown by the following structure (dose: 100 and 300 μmole/kg respectively) were administered intravenously to the mouse at a volume of 0.2 ml or 0.3 ml (in case the administration at the dose of 300 μmole/kg of Cytarabine prodrug) per 20 g of mouse body weight. After the treatment, survival of the mice was recorded. [drawing 9]

Data set [7] in a line: in vitro. Conditions: rat, serum. In kind it is in vitro ADME. On the procedure:
The mixture of chloroform and methanol (8:2 v/v) mixture containing egg yolk lecithin (70 μmole), egg yolk sphingomyelin (30 μmole) and Cytarabine prodrug (30 μmole) obtained in the below-mentioned Example 8 was poured into a round-bottom flask and evaporated to dryness. To this were added sodium cholate (53.8 mg) and PBS (5.0 ml) and the mixture was agitated to give a clear colorless solution.
Sodium cholate was removed from the solution by the Lipoprep dialyzer to give liposome suspension containing Cytarabine prodrug.
The liposome suspension was diluted with PBS to obtain the drug concentration of 5 μmole/ml and was filtered successively through polycarbonate membranes(prepared by Nuclepore Co., Ltd.) (0.2, 0.1 and 0.08μ respectively) and then filtered through a millex-GV filter (0.22 μ).
After the above-mentioned liposome suspension and ethanol solution of Cytarabine prodrug (0.08 ml) were added to rat serum (4.0 ml, 37° C.), samples were taken periodically and the concentration of Cytarabine prodrug was determined by high-performance liquid chromatography.
Conversion half lives (t 1/2) of the prodrug to the parent compound were calculated by the concentration of prodrug remaining at each time.

[8] abbreviates: i.v. aqueous solution, 1000 μmole/kg at Day 1, 5, 9.
Where [9] appears, read: i.v. aqueous solution, 1000 μmole/kg.
Where [10] appears, read: i.v. liposome preparation, 100 μmole/kg at Day 1, 5, 9.
Setting [11] is: i.v. liposome preparation, 180 μmole/kg at Day 1, 5, 9.
[12] abbreviates: i.v. liposome suspension, 100 μmole/kg.
Where [13] appears, read: i.v. liposome suspension, 300 μmole/kg.

For the compound “11-[N-(cholest-5-en-3β-oxycarbonyl)glycyl]-4-formyl-6,9-dihydroxy-14- oxa-1,11-diazatetracyclo[7.4.1.0^2,7.0^10,12 ]tetradeca-2,4,6-triene-8-ylmethylcarbamate [Example 6]”, the “Half life (t 1/2)” value in data set [1] (ethanol solution) came to 4.0 h; in data set [1] (liposome suspension), 10.3 h; in data set [2] (ethanol solution) it was 3.3 h; in data set [2] (liposome suspension), 9.9 h; in data set [3] (ethanol solution), 2.7 h; in data set [3] (liposome suspension) it was 4.6 h.
For the compound `Nc1ccn([C@@H]2O[C@H](CO)[C@@H](O)[C@@H]2O)c(=O)n1` [Cytarabine, 1-β-D-arabinofuranosylcytosine], in data set [4] (setting [8]), the “Tumor volume mean value ± standard error” value is recorded as 17.7 ± 3.2 mm^3 and the Inhibition worked out at 41.7%. In addition, the Mean survival time in data set [5] is 9.5 ± 0.2 days. This compound also had a T/C in data set [5] (mean survival time vs control) of 106%. Further, in data set [6] (setting [9]), the Mean survival time is on record as 10.8 ± 0.3 days and the T/C turned out to be 120%.
Regarding `CC(C)CCC[C@@H](C)[C@H]1CC[C@H]2[C@@H]3CC=C4C[C@@H](OC(=O)NCC(=O)Nc5ccn([C@@H]6O[C@H](CO)[C@@H](O)[C@@H]6O)c(=O)n5)CC[C@]4(C)[C@H]3CC[C@]12C` [Example 8, N^4-[N-(cholest-5-en-3β-oxycarbonyl)glycyl]-1-β-D-arabinofuranosylcytosine], in data set [7], the “Half life (t 1/2)” value was 37.3 h. The compound further showed a half-life in data set [7] (Half life (t 1/2)) of 1360 min. In addition, in data set [4] (setting [10]), the “Tumor volume mean value ± standard error” value was 13.0 ± 3.0 mm^3 and the Inhibition is listed as 54.1%. For the same compound, in data set [4] (setting [11]), the “Tumor volume mean value ± standard error” value turned out to be 5.5 ± 1.6 mm^3 and the Inhibition amounted to 80.4%. In data set [6] (setting [12]), this compound came in with a Mean survival time of 16.3 ± 0.3 days and a T/C of 181%. In data set [6] (setting [13]), this compound registered a Mean survival time of 33.3 ± 13.4 days and a T/C of 370%.

Usually Inhibition stands for the change of the read-out against control, counted positive when it falls. The T/C is the result in the treated group divided by that in the control group, in per cent. What is called half-life is how long it takes for the measured level to halve. Lower therefore signals rapid decline.
